Measured values from patent publication US9056999B2, “Ultraviolet-curable aqueous ink, ink cartridge, recording apparatus and recording method” (Fuji Xerox Co., Ltd., priority 2013, dated 2015).

Experiment: Solubility of thioxanthone compound and tertiary amine compound in water-soluble organic solvent at 25° C.
[1] = in 4-(2-hydroxyethyl)morpholine
[2] = in 3-morpholino-1,2-propanediol

Row | SMILES | solubility (25° C.) (in 4-ethylmorpholine) | solubility (25° C.) [1] | solubility (25° C.) (in 2-(2-butoxyethoxy)ethanol) | solubility (25° C.) (in 3-methylsulfolane) | solubility (25° C.) [2] | solubility (25° C.) (in 4-(2-aminoethyl)morpholine) | solubility (25° C.) (in 4-acetylmorpholine) | solubility (25° C.) (in 4-hydroxypropylmorpholine)
1 | CC(C)c1ccc2sc3ccccc3c(=O)c2c1 [2-isopropylthioxanthone] | 30 mass % |  |  |  |  |  |  | 
2 | CCOC(=O)c1ccc(N(CC)CC)cc1 [4-diethylamino ethyl benzoate] |  | 27 mass % |  |  |  |  |  | 
3 | CCc1cc(CC)c2sc3ccccc3c(=O)c2c1 [Kayacure DETX-S, 2,4-diethylthioxanthone] |  | 15 mass % | 17 mass % | 4 mass % | 9 mass % | 14 mass % | 20 mass % | 
4 | CCOC(=O)c1ccc(N(C)C)cc1 [Kayacure EPA, 4-dimethylamino ethyl benzoate] | 40 mass % | 30 mass % | 30 mass % | 18 mass % | 30 mass % | 30 mass % | 35 mass % | 18 mass %
